From ChEMBL document CHEMBL4483862, “Open-source discovery of chemical leads for next-generation chemoprotective antimalarials” (2018)

Test system: Plasmodium berghei
Assay: Luciferase/luciferin-expressing antifolate-resistant parasites were used to infect a culture of HepG2 cells that were pre-incubated with compounds. Infected hepatocytes emit light due to the luciferase reaction. Assay results are presented as the percent inhibition of light emission compared to control. […]
Format: functional
Conditions: sporozoite; for IC90: read-out: LUCIFERASE INFECTION ASSAY - IC90
[1] = read-out: LUCIFERASE INFECTION ASSAY - IC50

Row | SMILES | IC90 | IC50 [1] | further results
1 | Nc1nc2c(C(=O)c3cccs3)nnn2c2ccc(Cl)cc12 | 0.489 µM |  | IC50 (FFLUC_HILL_SLOPE 1.53, FFLUC_R_SQUARED 0.767, PBLUC_HILL_SLOPE 0.914, PBLUC_R_SQUARED 0.801, read-out: LUCIFERASE INFECTION ASSAY - IC50): 0.0442 µM
2 | Cc1cc(C(C)(C)C)cc(C)c1CCN1C(=O)CSC1c1cccnc1 (centres undefined) | > 10 µM | > 10 µM | 
3 | Cc1ccc(C(=O)Nc2nc(CC34CC5CC(CC(C5)C3)C4)cs2)s1 | > 10 µM |  | IC50 (PBLUC_HILL_SLOPE 2.85, PBLUC_R_SQUARED 0.204, read-out: LUCIFERASE INFECTION ASSAY - IC50): 6.66 µM
4 | Cc1cc(C(=O)Cn2c(C(C)O)nc3ccccc32)c(C)n1-c1ccc(F)c(Cl)c1 (centres undefined) | > 10 µM |  | IC50 (PBLUC_HILL_SLOPE 2.79, PBLUC_R_SQUARED 0.449, read-out: LUCIFERASE INFECTION ASSAY - IC50): 7.26 µM
5 | COc1cccc(-c2ccc3ncc(-c4ccc5c(c4)OCO5)n3n2)c1 | 9 µM |  | IC50 (HEPG2TOX_HILL_SLOPE 2.64, HEPG2TOX_R_SQUARED 0.763, PBLUC_HILL_SLOPE 3.7, PBLUC_R_SQUARED 0.498, read-out: LUCIFERASE INFECTION ASSAY - IC50): 4.97 µM
6 | Cc1cccc(OCCN(C)Cc2cc(=O)n3c([nH]c4ccccc43)c2C#N)c1 | 7.03 µM |  | IC50 (HEPG2TOX_HILL_SLOPE 0.204, HEPG2TOX_R_SQUARED 0.162, PBLUC_HILL_SLOPE 2.87, PBLUC_R_SQUARED 0.544, read-out: LUCIFERASE INFECTION ASSAY - IC50): 3.27 µM
7 | Cc1cc(C(=O)NNC(=O)c2c(C)nc3ccccn23)c2nc3n(c2n1)CCCCC3 | 0.662 µM |  | IC50 (HEPG2TOX_HILL_SLOPE 1.28, HEPG2TOX_R_SQUARED 0.815, PBLUC_HILL_SLOPE 3.27, PBLUC_R_SQUARED 0.895, read-out: LUCIFERASE INFECTION ASSAY - IC50): 0.338 µM
8 | CCOC(=O)/C=C/C(=O)OCC(=O)NC(c1ccccc1)c1ccccc1 | > 10 µM | > 10 µM | 
9 | COc1ccc(-c2cc(-c3ccc4ccccc4c3)n(C)c2-c2ccc(F)cc2)cc1 | > 8.1 µM |  | IC50 (FFLUC_HILL_SLOPE 0.642, FFLUC_R_SQUARED 0.523, PBLUC_HILL_SLOPE 1.6, PBLUC_R_SQUARED 0.413, read-out: LUCIFERASE INFECTION ASSAY - IC50): 2.69 µM
10 | CCC(C)(C)c1ccc(Oc2ccc(NC(=O)Nc3ccccc3OC)cc2)cc1 | 5.8 µM |  | IC50 (HEPG2TOX_HILL_SLOPE 7.52, 1.98, HEPG2TOX_R_SQUARED 0.307, 0.635, PBLUC_HILL_SLOPE 2.78, 0.762, PBLUC_R_SQUARED 0.525, 0.659, read-out: LUCIFERASE INFECTION ASSAY - IC50): 1.08 µM
11 | CN(C)c1ccc(/C=C/c2cccc[n+]2C)cc1 | > 9.01 µM |  | IC50 (HEPG2TOX_HILL_SLOPE 3.15, HEPG2TOX_R_SQUARED 0.984, PBLUC_HILL_SLOPE 12.7, PBLUC_R_SQUARED 0.413, read-out: LUCIFERASE INFECTION ASSAY - IC50): 7.92 µM
12 | O=C(COc1ccccc1-c1ccccc1)Nc1nc(-c2ccccn2)cs1 | 9.35 µM |  | IC50 (HEPG2TOX_HILL_SLOPE 2.53, HEPG2TOX_R_SQUARED 0.481, PBLUC_HILL_SLOPE 10.3, PBLUC_R_SQUARED 0.199, read-out: LUCIFERASE INFECTION ASSAY - IC50): 7.56 µM
13 | Cc1nn(-c2ccccc2)nc1C(=O)Nc1nc(CN2CCCCCC2)cs1 | > 10 µM | > 10 µM | 
14 | COc1cc(Br)c(/C=C2/C(=O)Nc3cc(Cl)ccc32)cc1O | > 10 µM |  | IC50 (HEPG2TOX_HILL_SLOPE 7.49, HEPG2TOX_R_SQUARED 0.517, PBLUC_HILL_SLOPE 14.1, PBLUC_R_SQUARED 0.1, read-out: LUCIFERASE INFECTION ASSAY - IC50): 9.39 µM
15 | CC(C)[C@H](NC(=O)c1ccccc1Cl)C(=O)OC(C(=O)Nc1cccc(C(F)(F)F)c1)c1ccccc1 (some centres undefined) | > 10 µM |  | IC50 (HEPG2TOX_HILL_SLOPE 0.157, HEPG2TOX_R_SQUARED 0.175, read-out: LUCIFERASE INFECTION ASSAY - IC50): > 10 µM
16 | Cc1nn(CC(=O)NNC(=O)CC23CC4CC(CC(C4)C2)C3)c(=O)c2ccccc12 | 6.96 µM |  | IC50 (PBLUC_HILL_SLOPE 1.76, PBLUC_R_SQUARED 0.72, read-out: LUCIFERASE INFECTION ASSAY - IC50): 2 µM
17 | Cc1ccc(N2C(=N)C(c3nc4ccccc4s3)C(c3ccccc3)C2=O)cc1 (centres undefined) | > 10 µM |  | IC50 (FFLUC_HILL_SLOPE 38.3, FFLUC_R_SQUARED 0.217, HEPG2TOX_HILL_SLOPE 0.75, HEPG2TOX_R_SQUARED 0.479, read-out: LUCIFERASE INFECTION ASSAY - IC50): > 10 µM
18 | Cc1ccc(-n2c(SCCCC(=O)c3cccs3)nnc2-c2ccccc2)cc1C | > 10 µM |  | IC50 (FFLUC_HILL_SLOPE 1.75, FFLUC_R_SQUARED 0.116, read-out: LUCIFERASE INFECTION ASSAY - IC50): > 10 µM
19 | Cc1noc(C)c1COc1ccc(C(=O)OCC(=O)N(C)C2(C#N)CCCCC2)cc1 | > 10 µM | > 10 µM | 
20 | COc1ccc(-c2cc3[nH]c(NCc4ccccc4)nc3cn2)cc1OC | 5.34 µM |  | IC50 (HEPG2TOX_HILL_SLOPE 12.7, HEPG2TOX_R_SQUARED 0.819, PBLUC_HILL_SLOPE 80.4, PBLUC_R_SQUARED 0.69, read-out: LUCIFERASE INFECTION ASSAY - IC50): 5.2 µM
21 | Cc1onc(-c2c(Cl)cccc2Cl)c1NC(=O)Nc1ccc(Cl)cc1 | 2.89 µM | 0.334 µM | 
22 | COc1ccc(-c2cnc3cnc(-c4ccc(N)nc4)cn23)cc1 | 8 µM |  | IC50 (PBLUC_HILL_SLOPE 1.84, PBLUC_R_SQUARED 0.648, read-out: LUCIFERASE INFECTION ASSAY - IC50): 2.43 µM
23 | O=C1NC(=O)/C(=C/c2cccc(C#Cc3ccccc3)c2)S1 | > 10.8 µM |  | IC50 (PBLUC_HILL_SLOPE 1.96, PBLUC_R_SQUARED 0.068, read-out: LUCIFERASE INFECTION ASSAY - IC50): 6.6 µM

Row | SMILES | IC90 | IC50 [1] | further results
24 | COc1ccc(CCN=C(S)NC2CCN(Cc3ccccc3)CC2)cc1 | > 10 µM |  | IC50 (HEPG2TOX_HILL_SLOPE 2.55, HEPG2TOX_R_SQUARED 0.6, read-out: LUCIFERASE INFECTION ASSAY - IC50): > 10 µM
25 | COc1ccc2cc(C(C)C(=O)N3CCN(S(=O)(=O)/C=C/c4ccccc4)CC3)ccc2c1 (centres undefined) | > 10 µM | > 10 µM | 
26 | CCN1C(=O)N(CCC(C)C)C2(CCN(Cc3ccc4c(c3)Cc3ccccc3-4)CC2)C1=O | > 7.41 µM |  | IC50 (HEPG2TOX_HILL_SLOPE 8.09, HEPG2TOX_R_SQUARED 0.945, PBLUC_HILL_SLOPE 9.13, PBLUC_R_SQUARED 0.509, read-out: LUCIFERASE INFECTION ASSAY - IC50): 5.93 µM
27 | CCN(CC)C(=O)CSc1nnc2nnc3cc(C)ccc3n12 | > 9.99 µM | > 9.99 µM | 
28 | COc1cc(NC(=O)COc2ccc3[nH]c4ccccc4c(=O)c3c2)c(OC)cc1Cl | 2.11 µM | 0.246 µM | 
29 | CC(=O)N(c1nc(/C=C/C(=O)c2ccc(F)c(F)c2)cs1)c1c(C)cccc1C | > 10 µM | > 10 µM | 
30 | Cc1oc2cc(OC(C)C(=O)Nc3cccc([N+](=O)[O-])c3)ccc2c(=O)c1-c1ccccc1 (centres undefined) | > 10 µM | 8.01 µM | 
31 | CC(C)(c1ccccc1)c1ccc(OCC(O)CN2CCC(C(N)=O)CC2)cc1 (centres undefined) | > 10 µM | > 10 µM | 
32 | CC(Oc1ccc2[nH]c3ccccc3c(=O)c2c1)C(=O)NC(=O)NC12CC3CC(CC(C3)C1)C2 (centres undefined) | 3.1 µM |  | IC50 (PBLUC_HILL_SLOPE 24.7, PBLUC_R_SQUARED 0.64, read-out: LUCIFERASE INFECTION ASSAY - IC50): 2.84 µM
33 | Cc1ccccc1/N=c1\scc(-c2ccc(Cl)cc2Cl)n1C(C)CCC(C)C (centres undefined) | 9.57 µM |  | IC50 (PBLUC_HILL_SLOPE 3.23, PBLUC_R_SQUARED 0.321, read-out: LUCIFERASE INFECTION ASSAY - IC50): 4.85 µM
34 | Cc1n[nH]c(=S)n1C1CCCCC1 | > 10 µM | > 10 µM | 
35 | O=[N+]([O-])c1ccc(Nc2cccc(OC3CCCC3)c2)nc1 | > 10 µM | > 10 µM | 
36 | CC1(C)C=Cc2cc(C(=N)NOC(=O)c3cccs3)ccc2O1 | 0.21 µM |  | 
37 | CN(CC(=O)Nc1ccccc1N1CCCCCC1)S(=O)(=O)c1ccccc1C#N | > 10 µM |  | IC50 (HEPG2TOX_HILL_SLOPE 3.04, HEPG2TOX_R_SQUARED 0.862, PBLUC_HILL_SLOPE 1.2, PBLUC_R_SQUARED 0.365, read-out: LUCIFERASE INFECTION ASSAY - IC50): 9.69 µM
38 | CCn1nc(C(=O)OCC(=O)Nc2cc(S(=O)(=O)N3CCCCC3)ccc2Cl)c2ccccc2c1=O | > 10 µM | > 10 µM | 
39 | Cc1sc2nc(CN3CCOCC3)nc(NCCc3c[nH]c4ccccc34)c2c1C | > 10 µM | > 10 µM | 
40 | COC(=O)c1ccc(/C=C/C(=O)OCC(=O)C(C#N)=C2Nc3ccccc3N2)cc1 | > 10 µM | > 10 µM | 
41 | N#CC1(C#N)C2C=CC(C2)C1(C#N)C#N | > 17 µM |  | IC50 (PBLUC_HILL_SLOPE 1.54, PBLUC_R_SQUARED 0.0374, read-out: LUCIFERASE INFECTION ASSAY - IC50): > 17 µM
42 | Cc1cc(C(=O)Nc2nc3c(C)cccn3c2C(=O)NC2CCCC2)c(C)o1 | > 8.67 µM | > 8.67 µM | 
43 | Cc1cc(N(Cc2ccc(C(C)C)cc2)C2CC2)n2ncnc2n1 | > 10 µM |  | IC50 (HEPG2TOX_HILL_SLOPE 2.35, HEPG2TOX_R_SQUARED 0.908, PBLUC_HILL_SLOPE 2.49, PBLUC_R_SQUARED 0.764, read-out: LUCIFERASE INFECTION ASSAY - IC50): 4.95 µM
44 | Cc1nc(C(=O)N2CCc3c(c(C(=O)NCc4ccccn4)nn3CCc3ccccc3)C2)cs1 | 2.47 µM |  | IC50 (PBLUC_HILL_SLOPE 26.7, PBLUC_R_SQUARED 0.676, read-out: LUCIFERASE INFECTION ASSAY - IC50): 2.27 µM
45 | Cc1cc(OCCCC(=O)NC2CCN(Cc3ccccc3)CC2)ccc1Cl | > 10 µM |  | IC50 (PBLUC_HILL_SLOPE 3.22, PBLUC_R_SQUARED 0.455, read-out: LUCIFERASE INFECTION ASSAY - IC50): 5.35 µM
